Test results reported in patent US10538498B2, “1,3,4-oxadiazole sulfonamide derivative compounds as histone deacetylase 6 inhibitor, and the pharmaceutical composition comprising the same” (Chong Kun Dang Pharmaceutical Corp., priority 2015, dated 2020).

Key:
human recombinant HDAC1 = molecular target: T1, human recombinant HDAC1 (Homo sapiens, UniProt Q13547); test: HDAC1 enzyme activity inhibition assay (HDAC Fluorimetric Drug Discovery Kit); assay type: biochemical; details: 0.3 μg enzyme, 10 μM substrate, 30° C., 60 minutes
T1 construct: purchased Enzo Life Science BML-SE456
T1 sequence (Q13547 whole entry): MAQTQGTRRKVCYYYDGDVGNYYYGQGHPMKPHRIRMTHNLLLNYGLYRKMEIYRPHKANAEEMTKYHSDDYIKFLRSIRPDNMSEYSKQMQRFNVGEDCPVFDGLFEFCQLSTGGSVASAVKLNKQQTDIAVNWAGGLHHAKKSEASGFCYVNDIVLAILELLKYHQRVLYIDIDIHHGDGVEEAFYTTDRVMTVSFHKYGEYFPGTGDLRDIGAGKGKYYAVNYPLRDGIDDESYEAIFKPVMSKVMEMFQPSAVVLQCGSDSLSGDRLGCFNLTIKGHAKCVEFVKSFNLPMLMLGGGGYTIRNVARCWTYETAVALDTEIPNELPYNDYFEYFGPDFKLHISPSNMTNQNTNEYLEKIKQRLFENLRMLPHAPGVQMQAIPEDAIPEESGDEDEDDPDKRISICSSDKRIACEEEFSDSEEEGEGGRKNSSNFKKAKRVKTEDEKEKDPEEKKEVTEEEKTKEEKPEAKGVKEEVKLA
Procedure: In order to examine the HDAC6 selectivity of the compounds of formula I of the present invention by HDAC1 and HDAC6 enzymatic activity inhibition assays, an experiment was performed using a conventional substance as a control.
HDAC enzyme activity was measured using a HDAC Fluorimetric Drug Discovery Kit (BML-AK511, 516, Enzo Life Science). For the HDAC1 enzyme activity test, human recombinant HDAC1 (BML-SE456) was used as an enzyme source, and Fluor de Lys®-“SIRT1 (BNL-KI177) was used as a substrate. A 5-fold dilution of the compound was seeded into a 96-well plate, and then 0.3 μg of the enzyme and 10 μM of the substrate were added to each well of the plate and allowed to react at 30° C. for 60 minutes. Then, Fluor de Lys®-Developer II (BML-KI176) was added thereto and allowed to react for 30 minutes, after which the fluorescence value (Ex 360, Em 460) was measured using a multi-plate reader (Flexstation 3, Molecular Device). The HDAC6 enzyme was tested using human recombinant HDAC6 (382180) (Calbiochem) according to the same protocol as the HDAC1 enzyme activity test method. Based on the resulting values, each IC50 value was calculated using GraphPad Prism4.0 program.

human recombinant HDAC6 = molecular target: T2, human recombinant HDAC6 (Homo sapiens, UniProt Q9UBN7); test: HDAC6 enzyme activity inhibition assay (HDAC Fluorimetric Drug Discovery Kit); assay type: biochemical; details: for HDAC6 selectivity (fold): HDAC1 vs HDAC6; for IC50: same protocol as the HDAC1 enzyme activity test
T2 construct: purchased Calbiochem 382180
T2 sequence (Q9UBN7 1-1215): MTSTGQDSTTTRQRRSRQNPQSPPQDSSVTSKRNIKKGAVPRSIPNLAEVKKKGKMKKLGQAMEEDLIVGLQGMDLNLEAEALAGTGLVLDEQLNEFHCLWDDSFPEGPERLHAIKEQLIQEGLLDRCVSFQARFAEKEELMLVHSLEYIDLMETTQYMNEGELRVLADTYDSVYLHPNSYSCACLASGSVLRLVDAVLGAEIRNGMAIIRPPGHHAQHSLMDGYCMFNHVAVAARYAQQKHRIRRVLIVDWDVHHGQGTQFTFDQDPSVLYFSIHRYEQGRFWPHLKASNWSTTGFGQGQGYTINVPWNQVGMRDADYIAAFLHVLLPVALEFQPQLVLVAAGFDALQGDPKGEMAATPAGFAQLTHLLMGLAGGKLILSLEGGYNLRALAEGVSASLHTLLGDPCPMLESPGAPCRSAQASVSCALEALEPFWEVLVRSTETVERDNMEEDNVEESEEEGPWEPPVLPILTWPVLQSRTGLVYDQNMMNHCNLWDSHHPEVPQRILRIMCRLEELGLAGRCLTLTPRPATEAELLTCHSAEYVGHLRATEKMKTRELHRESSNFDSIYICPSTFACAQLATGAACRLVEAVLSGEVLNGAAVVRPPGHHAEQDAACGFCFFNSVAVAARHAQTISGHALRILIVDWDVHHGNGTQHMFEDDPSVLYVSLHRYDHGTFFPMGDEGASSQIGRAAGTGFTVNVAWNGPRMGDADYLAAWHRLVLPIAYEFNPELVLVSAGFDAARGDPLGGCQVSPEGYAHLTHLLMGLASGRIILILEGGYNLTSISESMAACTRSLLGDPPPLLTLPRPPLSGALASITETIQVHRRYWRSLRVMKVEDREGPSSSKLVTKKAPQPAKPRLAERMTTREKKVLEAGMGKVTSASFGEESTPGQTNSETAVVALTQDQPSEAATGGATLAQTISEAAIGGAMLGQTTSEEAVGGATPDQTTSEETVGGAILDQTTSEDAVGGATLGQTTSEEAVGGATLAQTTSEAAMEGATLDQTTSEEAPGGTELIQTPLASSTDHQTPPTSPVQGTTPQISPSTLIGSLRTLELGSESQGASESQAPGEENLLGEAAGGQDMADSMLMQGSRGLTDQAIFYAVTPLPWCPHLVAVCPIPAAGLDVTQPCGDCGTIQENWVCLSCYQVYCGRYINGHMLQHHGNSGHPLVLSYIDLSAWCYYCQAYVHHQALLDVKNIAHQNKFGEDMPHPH
Outline: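 Recombinant enzyme (0.3 μg) was incubated with 5-fold serially diluted compound and 10 μM Fluor de Lys-SIRT1 substrate for 60 min at 30° C. Developer II was then added for 30 min, fluorescence read at Ex 360/Em 460, and IC50 values were calculated.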

| Structure (SMILES) | IC50 (human recombinant HDAC1) [µM] | HDAC6 selectivity (fold) (human recombinant HDAC6) | IC50 (human recombinant HDAC6) [µM] |
| --- | --- | --- | --- |
| O=S(=O)(C1CCN([C@H]2CC[C@H](F)CC2)CC1)N(Cc1ccc(-c2nnc(C(F)F)o2)cn1)c1cccc(Cl)c1 [Compound 11727, N-(3-chlorophenyl)-N-((5-(5-(difluoromethyl)-1,3,4-oxadiazol-2-yl)pyridin-2-yl)methyl)-1-((1r,4r)-4-fluorocyclohexyl)piperidine-4-sulfonamide] | 33.5 | 594 | 0.0563 |
| Cc1cccc(N(Cc2ccc(-c3nnc(C(F)F)o3)cn2)S(=O)(=O)C2CCN(C3CCOCC3)CC2)c1 [Compound 11692, N-((5-(5-(difluoromethyl)-1,3,4-oxadiazol-2-yl)pyridin-2-yl)methyl)-1-(tetrahydro-2H-pyran-4-yl)-N-(m-tolyl)piperidine-4-sulfonamide] | 71.7 | 1309 | 0.0547 |
| CS(=O)(=O)N(Cc1ccc(-c2nnc(C(F)(F)F)o2)cn1)c1ccccc1 [Compound 11171, N-phenyl-N-((5-(5-(trifluoromethyl)-1,3,4-oxadiazol-2-yl)pyridin-2-yl)methyl)methanesulfonamide] | 26.6 | 1267 | 0.021 |
| O=S(=O)(CCCO)N(Cc1ccc(-c2nnc(C(F)F)o2)cc1)c1ccccc1 [Compound 11708, N-(4-(5-(difluoromethyl)-1,3,4-oxadiazol-2-yl)benzyl)-3-hydroxy-N-phenylpropane-1-sulfonamide] | 65.1 | 837 | 0.0778 |
| Cc1cccc(N(Cc2ccc(-c3nnc(C(F)F)o3)cc2)S(=O)(=O)C2CCN([C@H]3CC[C@H](F)CC3)CC2)c1 [Compound 11695, N-(4-(5-(difluoromethyl)-1,3,4-oxadiazol-2-yl)benzyl)-1-((1r,4r)-4-fluorocyclohexyl)-N-(m-tolyl)piperidine-4-sulfonamide] | 61.4 | 306 | 0.2 |
| O=S(=O)(C1CCN(C2CCC2)CC1)N(Cc1ccc(-c2nnc(C(F)F)o2)cc1)c1ccccc1 [Compound 11639, 1-cyclobutyl-N-(4-(5-(difluoromethyl)-1,3,4-oxadiazol-2-yl)benzyl)-N-phenylpiperidine-4-sulfonamide] | 77.7 | 1849 | 0.042 |
| CCS(=O)(=O)N(Cc1ccc(-c2nnc(C(F)F)o2)cn1)c1ccc(C)c(Cl)c1 [Compound 11505, N-(3-chloro-4-methylphenyl)-N-((5-(5-(difluoromethyl)-1,3,4-oxadiazol-2-yl)pyridin-2-yl)methyl)ethanesulfonamide] | 60.4 | 4646 | 0.013 |
| CS(=O)(=O)N(Cc1ccc(-c2nnc(C(F)(F)F)o2)cn1)c1cccc(F)c1 [Compound 11216, N-(3-fluorophenyl)-N-((5-(5-(trifluoromethyl)-1,3,4-oxadiazol-2-yl)pyridin-2-yl)methyl)methanesulfonamide] | 28 | 368 | 0.076 |
| CS(=O)(=O)N(Cc1ccc(-c2nnc(C(F)(F)F)o2)nn1)c1ccccc1 [Compound 11567, N-phenyl-N-((6-(5-(trifluoromethyl)-1,3,4-oxadiazol-2-yl)pyridazin-3-yl)methyl)methanesulfonamide] | 30.9 | 7 | 4.33 |
| CN1CC(N2CCC(S(=O)(=O)N(Cc3ccc(-c4nnc(C(F)F)o4)cc3F)c3ccc(F)c(Cl)c3)CC2)C1 [Compound 11451, N-(3-chloro-4-fluorophenyl)-N-(4-(5-(difluoromethyl)-1,3,4-oxadiazol-2-yl)-2-fluorobenzyl)-1-(1-methylazetidin-3-yl)piperidine-4-sulfonamide] | 27.2 | 3018 | 0.009 |
